Test results as given in patent US10232047B2, “Topical oil composition for the treatment of fungal infections” (VYOME BIOSCIENCES PVT LTD., priority 2011, dated 2019).

Columns and labels:
M. furfur (MTCC 1374) = assay: Lipid assimilation in vitro assay: growth of M. furfur on Sabouraud Dextrose agar supplemented with fatty acids/esters or oils; type: cell-based, Malassezia furfur; conditions: up to 6 days
Excerpt: Malassezia species are lipophilic unipolar yeasts recognized as commensals of skin that may be pathogenic under certain conditions (Indian Journal of Medical Microbiology, (2004) 22 (3):179-181). To compare lipid requirements of the fungus most closely associated with dandruff/seborrheic dermatitis, the best studied Malassezia species is M. furfur. Lipid assimilation in vitro assay was designed to investigate lipid effect on growth of M. furfur (MTCC 1374).
Method: Briefly, Sabouraud Dextrose containing low-melt agar was melted, cooled to 38° C. Fatty acids/esters constituents eg, capric acid, caprylic acid, linoleic acid, oleic acid, lauric acid, palmitic acid, ethyl oleate, isopropyl myristate and oils containing fatty acid/esters eg, coconut oil, mustard oil etc., were added to study the growth of the fungus (Kaw Bing CHUA, et al Malaysian J Pathol (2005) 27(2): 99). After solidification, agar plates were streaked with M. furfur innoculum adjusted to appropriate cfu/ml, aseptically. Positive control with 2% olive oil and negative control without fatty substance were also maintained.
Malassezia species are lipophilic, unipolar yeasts recognized as commensals of skin that may be pathogenic under certain conditions. To compare lipid requirements of the fungus most closely associated with dandruff/seborrheic dermatitis, the best studied Malassezia species is M. furfur. A lipid assimilation in vitro assay was designed to investigate lipid effect <C-11 fatty acid or their esters on growth of M. furfur (MTCC 1374).
Briefly, Sabouraud Dextrose containing low-melt agar was melted and cooled to 38° C. Fatty acids/esters constituents, e.g., caprylic acid, capric acid and Monocaprylate of propylene glycol, were added in 2% concentration to study the growth of the fungus. After solidification, agar plates were streaked with M. furfur innoculum adjusted to appropriate cfu/ml, aseptically. Positive control with 2% olive oil and negative control without fatty substance were also maintained.
A lipid assimilation in vitro assay was designed to investigate lipid effect >C-10 fatty acid or their esters on growth of M. furfur (MTCC 1374). Sabouraud Dextrose containing low-melt agar was melted and cooled to 38° C. Fatty acids/esters constituents, e.g. fatty acids or esters, such as lauric acid, palmitic acid, myristic acid, oleic acid, linoleic acid, isopropyl myristate, ethyl oleate, mustard oils, coconut oil were added at different concentration to study the growth of the fungus. Positive control with 2% olive oil and negative control without fatty substance were also maintained. After solidification, agar plates were streaked with M. furfur innoculum adjusted to appropriate cfu/ml, aseptically.

[1] = system: Malassezia furfur (MTCC 1374); assay: MIC by agar dilution method in Leeming Notman Medium; type: cell-based; parameters: key: “+” indicates growth of fungus; “−” indicates no growth of fungus; conditions: M. furfur
Experimental: The Minimum Inhibitory Concentration (MIC) is considered as an index for indicating Anti-fungal efficacy. Therefore lower the value of MIC of the composition, the better is its anti-fungal efficacy.
Method: The in vitro activities of some of the oil compositions containing piroctone olamine against Malassezia furfur (MTCC 1374) were determined by agar dilution methods (Jan Faergemann, et al Acta Derm Venereol, (2006), 86:312; Irith Wiegand, et al Nature Protocols (2008), 3:163) Appropriate dilutions of solubilized antifungal compositions were added to molten Leeming Notman Medium. Once the plates were set, M. furfur innoculum adjusted to appropriate cfu/ml was streaked on the agar plates and incubated for 6 days. […] The MIC is defined as as the lowest concentration of antifungal agents that inhibits visible growth of fungus.
Method: The in vitro activities of some of the oil compositions containing ketoconazole against Malassezia furfur (MTCC 1374) were determined by agar dilution methods. Appropriate dilutions of antifungal compositions were added to molten Leeming Notman Medium. Once the plates were set, M. furfur innoculum adjusted to appropriate cfu/ml was streaked on the agar plates and incubated for 6 days. […] The MIC is defined as the lowest tested dilution of antifungal active that yields no growth.
B) Study of MIC of Oil Compositions Devoid of C-11 or Greater Fatty Acids/Esters Containing Antifungal Agent Piroctone Olamine Against M. furfur Under in vitro Conditions.

M. obtusa = assay: MIC of oil compositions against M. obtusa; type: cell-based; parameters: key: “+” indicates growth of fungus; “−” indicates no growth of fungus
[2] = Example 6B, different concentration (olive oil 2%)
[3] = Table 6, compositions of Table 5
[4] = piroctone olamine oil compositions, incubated 6 days

With `CCCCCCCCCC(=O)O` [capric acid] the “Growth of M. furfur with the substance as nutrient in culture media” value (“Growth of M. furfur with the substance” below) (M. furfur (MTCC 1374); Example 3) was “no growth” and the “Growth of M. furfur with the substance” value (M. furfur (MTCC 1374); Example 6A, 2% concentration) was “no growth”.

`CCCCCCCCCCCCCCCC(=O)O` [palmitic acid] was tested, and the “Growth of M. furfur with the substance” value (M. furfur (MTCC 1374); Example 3) was “confluent growth” and the “Growth of M. furfur with the substance” value (M. furfur (MTCC 1374); [2]) was “confluent growth”.

`CCCCCCCC/C=C\CCCCCCCC(=O)OCC` [ethyl oleate] was tested, and the “Growth of M. furfur with the substance” value (M. furfur (MTCC 1374); Example 3) was “confluent growth” and the “Growth of M. furfur with the substance” value (M. furfur (MTCC 1374); [2]) was “confluent growth”.

In the case of `CCCCCCCCCCCC(=O)O` [lauric acid], the “Growth of M. furfur with the substance” value (M. furfur (MTCC 1374); Example 3) is reported as “confluent growth” and the “Growth of M. furfur with the substance” value (M. furfur (MTCC 1374); [2]) is reported as “confluent growth”.

`Cc1cc(CC(C)CC(C)(C)C)n(O)c(=O)c1.NCCO` (stereo not drawn) [PO in DMSO, Piroctone olamine] was tested, and the “Growth of fungus at concentration 8 μg/ml (MIC determination)” value [1, 3] was “+”, the “Growth of fungus at concentration 8 μg/ml (MIC determination)” value [1, 4] was “+” and the “Growth of fungus at concentration 16 μg/ml (MIC determination)” value [1, 3] was “+”. For the same compound, the “Growth of fungus at concentration 16 μg/ml (MIC determination)” value [1, 4] was “+”, the “Growth of fungus at concentration 32 μg/ml (MIC determination)” value [1, 3] was “−” and the “Growth of fungus at concentration 32 μg/ml (MIC determination)” value [1, 4] was “−”. For the same compound, the “Growth of fungus at concentration 64 μg/ml (MIC determination)” value [1, 3] was “−”, the “Growth of fungus at concentration 64 μg/ml (MIC determination)” value [1, 4] was “−” and the “Growth of fungus at concentration 4 μg/ml (MIC determination)” value (M. obtusa; 4 μg/ml) was “+”. For the same compound, the “Growth of fungus at concentration 8 μg/ml (MIC determination)” value (M. obtusa; 8 μg/ml) was “+”, the “Growth of fungus at concentration 16 μg/ml (MIC determination)” value (M. obtusa; 16 μg/ml) was “+” and the “Growth of fungus at concentration 32 μg/ml (MIC determination)” value (M. obtusa; 32 μg/ml) was “−”. For the same compound, the “Growth of fungus at concentration 64 μg/ml (MIC determination)” value (M. obtusa; 64 μg/ml) was “−”.

In the case of `CC(=O)N1CCN(c2ccc(OCC3COC(Cn4ccnc4)(c4ccc(Cl)cc4Cl)O3)cc2)CC1` (stereo not drawn) [Keto in DMSO, Ketoconazole], the “Growth of fungus at concentration 0.0625 μg/ml (MIC determination)” value ([1]; 0.0625 μg/ml, ketoconazole oil compositions, incubated 6 days) is reported as “+”, the “Growth of fungus at concentration 0.125 μg/ml (MIC determination)” value ([1]; 0.125 μg/ml, ketoconazole oil compositions, incubated 6 days) is reported as “+” and the “Growth of fungus at concentration 0.25 μg/ml (MIC determination)” value ([1]; 0.25 μg/ml, ketoconazole oil compositions, incubated 6 days) is reported as “−”. For the same compound, the “Growth of fungus at concentration 0.5 μg/ml (MIC determination)” value ([1]; 0.5 μg/ml, ketoconazole oil compositions, incubated 6 days) was “−”, the “Growth of fungus at concentration 1 μg/ml (MIC determination)” value ([1]; 1 μg/ml, ketoconazole oil compositions, incubated 6 days) was “−” and the “Growth of fungus at concentration 2 μg/ml (MIC determination)” value ([1]; 2 μg/ml, ketoconazole oil compositions, incubated 6 days) was “−”.

In the case of `CCCCCCCC(=O)O` [caprylic acid], the “Growth of M. furfur with the substance” value (M. furfur (MTCC 1374); Example 3) is reported as “no growth” and the “Growth of M. furfur with the substance” value (M. furfur (MTCC 1374); Example 6A, 2% concentration) is reported as “no growth”.

For `CCCCCCCCCCCCCC(=O)O` [myristic acid], the “Growth of M. furfur with the substance” value (M. furfur (MTCC 1374); [2]) was “confluent growth”.

With `CCCCCCCC/C=C\CCCCCCCC(=O)O` [oleic acid] the “Growth of M. furfur with the substance” value (M. furfur (MTCC 1374); Example 3) was “confluent growth” and the “Growth of M. furfur with the substance” value (M. furfur (MTCC 1374); [2]) was “confluent growth”.

`CCCCCCCCCCCCCC(=O)OC(C)C` [isopropyl myristate] was tested, and the “Growth of M. furfur with the substance” value (M. furfur (MTCC 1374); Example 3) was “confluent growth” and the “Growth of M. furfur with the substance” value (M. furfur (MTCC 1374); [2]) was “confluent growth”.

`CCCCC/C=C\C/C=C\CCCCCCCC(=O)O` [linoleic acid] was tested, and the “Growth of M. furfur with the substance” value (M. furfur (MTCC 1374); Example 3) was “confluent growth” and the “Growth of M. furfur with the substance” value (M. furfur (MTCC 1374); [2]) was “confluent growth”.
